Holding throughout (test): DTP human tumour cell line panel, 48 h
The test system of assay [1] is A498 renal.
The subject of assay [2] is SK-MEL-5 melanoma.
The test system of assay [3] is IGROV1 ovarian.
Assay [4] concerns MCF7 breast.
For assay [5], the system named is MDA-MB-435.
Assay [6] has as its system M14 melanoma.
The subject of assay [7] is HOP-92 NSCLC.
The test system of assay [8] is SK-OV-3 ovarian.
Assay [9] deals with BT-549 breast.
Assay [10] concerns MALME-3M melanoma.

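Protocol summary: plate cells (96-well), add compound at 5 concentrations, incubate 48 h, interpolate endpoints linearly. At the GI50, growth is halved. TGI marks complete inhibition of growth.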

Here are results for 31 compounds from PubChem BioAssay (NCI).

For the compound `O=c1cc(-c2ccncc2)[nH]c2cc3c(cc12)OCO3`, the TGI in assay [1], in assay [2], in assay [3], in assay [4], in assay [5] and in assay [6] was above 100 µM in each case. In addition, the TGI in assay [7] and in [8] was above 100 µM throughout.
For the compound `COc1ccc(C2C3=C(COC3=O)Oc3cc4c(cc32)OCO4)c(OC)c1` (stereo not given), the concentration for total growth inhibition (TGI) in [1] was above 100 µM; in assay [2], above 100 µM; in assay [3] it was above 100 µM; in assay [4], above 100 µM; in [9] it was above 100 µM; in assay [5] it was 5.49 µM. Also, the TGI in [6] is above 100 µM; in assay [10] it was above 100 µM; in [8], 93.1 µM.
As to `COc1ccccc1C1Nn2c(nc3ccccc3c2=O)N1c1ccc(C)cc1` (stereo not given), the TGI was 22.5 µM in assay [2]; 19.8 µM in assay [3]; 26.3 µM in assay [4]; 68.6 µM in assay [9]; 22.7 µM in assay [5]; 26.4 µM in [6]. The concentration for total growth inhibition (TGI) in assay [7] was found to be 23.1 µM; in assay [10] it was 38.7 µM; in assay [8], 15.7 µM.
As to `CCC1=C(C(C)=O)[C@@H]2CCCCC[C@@H](C(=O)OC)C2C1=O` (stereo not given in full), the TGI in [1], in [2], in assay [3], in [6], in assay [7] and in [10] was above 100 µM in each case. The compound further showed a TGI in assay [8] above 100 µM.
As for `Cc1cc(C)nc(NS(=O)(=O)c2ccc(Nc3c4ccccc4nc4c(C(=O)N5CCN(CCOS(C)(=O)=O)CC5)cccc34)cc2)n1`, the TGI in assay [1], in [2], in assay [3], in assay [6], in assay [7] and in [10] was above 100 µM each time. The TGI in assay [8] is above 100 µM.
Regarding `Cc1cc(C)c2c(=O)cc(-c3cccc(F)c3)[nH]c2n1`, the TGI in assay [1] was above 26.9 µM; in assay [2] it was 6.38 µM; in assay [4], 2.16 µM; in [9], above 22 µM; in [6] it was above 100 µM; in assay [7], 0.489 µM. Further, the concentration for total growth inhibition (TGI) in assay [10] and in assay [8] was above 100 µM in each case.
As to `CCCCOc1ccc(OCCCCCCCCCC[N+](C)(C)C)cc1`, the TGI in [1] was 28.6 µM; in assay [2], 3.81 µM; in assay [3], 3.52 µM; in assay [4], 14.8 µM; in assay [7] it was 3.65 µM; in assay [10], 16 µM. In addition, the TGI in assay [8] came to 10.8 µM.
Take `CC(C)(C)OC(=O)NC(Cc1ccccc1)NC(=O)NC(=O)OCc1ccccc1` (stereo not given): the TGI in [2], in assay [3], in assay [4], in assay [9], in [5] and in assay [6] was above 100 µM in each case. Further, the total growth inhibition concentration (TGI) in assay [10] and in assay [8] was above 100 µM in each case.
For the compound `CC(=O)OCC1OC(n2c(-c3ccccc3)c(N=Nc3ccccc3)c(C)c(C#N)c2=S)C(OC(C)=O)C(OC(C)=O)C1OC(C)=O` (stereo not given), the TGI in assay [2], in assay [3], in [4], in assay [9], in assay [5] and in [6] was above 100 µM each time. Also, the TGI in [7], in assay [10] and in assay [8] was above 100 µM throughout.
As to `C=C1N(C=O)C(C)(C)N(O)C1(C)C`, the TGI in [2], in assay [3], in [4], in [5], in [6] and in [7] was above 100 µM in each case. Further, the TGI in assay [10] and in [8] was above 100 µM throughout.
On to `COc1cc(S(=O)(=O)Nc2ccc(C(=O)/C=C/c3ccc(O)cc3)cc2)ccc1F`, for which the GI50 in assay [2] was above 100 µM; in [4], above 100 µM; in assay [9], above 100 µM; in assay [5], above 100 µM; in assay [7], 1.55 µM; in assay [10], 35.1 µM. Besides, the GI50 in assay [8] was above 100 µM. The TGI is above 100 µM in assay [2]; above 100 µM in assay [4]; above 100 µM in assay [9]; above 100 µM in assay [5]; 27.5 µM in [7]; above 100 µM in [10]. The TGI in assay [8] is above 100 µM.
`CC(C)N1CC2CC(CN(C(=O)c3ccccc3)C2)C1`: the TGI in assay [1], in assay [2], in assay [3], in [6], in assay [7] and in [10] was above 100 µM in each case. This compound showed a total growth inhibition concentration (TGI) in [8] above 100 µM.
In the case of `CN1C(=O)N(C)C(O)C(Cl)(Br)C1=O` (stereo not given), the TGI in assay [1], in assay [2], in [3], in assay [4], in assay [9] and in [5] was above 100 µM throughout. Besides, the TGI in assay [6], in [10] and in assay [8] was above 100 µM each time.
On to `CN(C)CCNC(=O)c1cc(Cl)cc2ccc(-c3ccccc3)nc12`, for which the TGI is 15.8 µM in assay [1]; 3.82 µM in assay [2]; 14.2 µM in assay [3]; 14.5 µM in [4]; 9.35 µM in assay [7]; 8.26 µM in assay [10]. The TGI in [8] was determined as 12.8 µM.
For the compound `NCCCCNCCCNC(=O)c1nc(-c2nc(CCN)sc2Cl)sc1Cl`, the TGI in assay [1], in assay [2], in assay [3], in assay [6], in assay [7] and in [10] was above 100 µM throughout. For the same compound, the TGI in [8] is above 100 µM.
In the case of `Cc1c(CN2CCN(C)CC2)c(CN2CCN(C)CC2)c(C)n1-c1ccc(Cl)cc1`, the TGI in [1] was 51.2 µM; in [2] it was 31.7 µM; in assay [3], above 100 µM; in assay [4] it was above 100 µM; in [9], above 100 µM; in [5], 62.7 µM. Moreover, the concentration for total growth inhibition (TGI) in assay [6] is 32 µM; in assay [10] it was 37.5 µM; in assay [8], above 100 µM.
As to `COc1ccc2nc(/C(N)=C\C#N)ccc2c1`, the concentration for total growth inhibition (TGI) in assay [2], in assay [3], in assay [4], in assay [5], in assay [6] and in [7] was above 100 µM throughout. In assay [10], this compound displayed a TGI above 100 µM.
With `CSC(SC)=C(C(=O)O)P(=O)(O)O`, the concentration for total growth inhibition (TGI) in assay [1], in assay [2], in assay [3], in assay [4], in assay [6] and in assay [7] was above 100 µM throughout. In addition, the TGI in [10] and in assay [8] was above 100 µM in each case.
In the case of `CSc1cc(=O)n2c3ccccc3c3ccnc1c32`, the TGI was above 100 µM in assay [1]; above 100 µM in [2]; above 79.1 µM in assay [3]; above 100 µM in [4]; above 100 µM in [7]; above 100 µM in assay [10]. In assay [8], this compound had a total growth inhibition concentration (TGI) of 97.5 µM.
On to `O=C1C=CC(=O)N1n1c(-c2ccccc2)n[nH]c1=O`, for which the TGI in [1], in [2], in [3], in assay [4], in assay [9] and in assay [5] was above 100 µM throughout. Further, the total growth inhibition concentration (TGI) in [6], in assay [10] and in [8] was above 100 µM each time.
As to `COC(=O)[C@@H]1CCCCC[C@H]2C(CO)=C(C)C(=O)C12` (stereo not given in full), the TGI in assay [1], in [2], in [3], in [6], in assay [7] and in assay [10] was above 100 µM in each case. The TGI in assay [8] was above 100 µM.
Turning to `N#C/C(=C/n1c(=S)[nH]c2ccc([N+](=O)[O-])cc21)C(N)=O`, the TGI in assay [2], in assay [3], in assay [4], in assay [5], in assay [6] and in [7] was above 100 µM each time. The TGI in [10] and in assay [8] was above 100 µM throughout.
`O=S(=O)(O)c1ccc(N=Nc2ccc(N=Nc3ccc(/C=C/c4ccc(N=[N+]([O-])c5ccc(/C=C/c6ccc(N=Nc7ccc(N=Nc8ccc(S(=O)(=O)O)cc8)cc7)cc6S(=O)(=O)O)c(S(=O)(=O)O)c5)cc4S(=O)(=O)O)c(S(=O)(=O)O)c3)cc2)cc1`: the total growth inhibition concentration (TGI) in [1], in assay [2], in [3], in assay [4], in assay [7] and in [10] was above 100 µM throughout. In [8], this compound had a total growth inhibition concentration (TGI) above 100 µM.
Take `C/C(Cl)=N\OC(=O)Nc1ccc(C)cc1`: the TGI in assay [1] was found to be 32.9 µM; in [2], 31.5 µM; in [3], 32.5 µM; in assay [4] it was 25.3 µM; in assay [6], 30.9 µM; in assay [7], 37.1 µM. Besides, the concentration for total growth inhibition (TGI) in assay [10] came out at 31 µM; in assay [8], 31.1 µM.
As for `C=C(C)OCOCCOC`, the concentration for total growth inhibition (TGI) in assay [1], in assay [2], in assay [3], in [4], in [9] and in assay [5] was above 100 µM each time. In addition, the TGI in assay [6], in assay [10] and in assay [8] was above 100 µM throughout.
Turning to `COc1cc2cc(C(=O)N3C[C@H](CCl)c4c3cc(N)c3ccccc43)[nH]c2c(OC)c1OC`, the TGI in [1] was 0.0318 µM; in assay [2], below 0.005 µM; in assay [3], 0.393 µM; in assay [4], 13 µM; in assay [5], 0.137 µM; in [6], 0.0137 µM. Moreover, the TGI is above 50 µM in [7], 0.0103 µM in assay [10] and 0.819 µM in [8]. Also, the GI50 in assay [3] is 0.005 µM; in [4], 0.005 µM; in assay [6], 0.005 µM; in [8], 0.0398 µM.
As for `COC(=O)Cc1ccc2c(cnn2-c2ccccc2)c1OC`, the total growth inhibition concentration (TGI) in assay [1], in [2], in [3], in assay [4], in assay [9] and in [5] was above 10 µM in each case. Besides, the TGI in assay [6], in assay [10] and in assay [8] was above 10 µM throughout.
Consider `COc1ccc(Nc2nc(N)c(C(=O)c3c[nH]c4ccccc34)s2)cc1`, for which the TGI was 16.3 µM in assay [1]; 14.4 µM in [2]; above 100 µM in [3]; 18.8 µM in [4]; above 40.5 µM in assay [9]; 16.4 µM in assay [6]. Besides, the TGI was 29.3 µM in assay [7], 21.6 µM in [10] and above 100 µM in [8].
On to `O=C(O)c1cccc2cccc(-c3cccc4cccc(C(=O)O)c34)c12`, for which the concentration for total growth inhibition (TGI) in assay [1], in assay [2], in [3], in assay [4], in assay [9] and in assay [5] was above 100 µM each time. Besides, the concentration for total growth inhibition (TGI) in [6], in [10] and in [8] was above 100 µM throughout.
Turning to `O=c1[nH]c2nc3ccccc3nc2[nH]c1=O`, the concentration for total growth inhibition (TGI) in assay [2], in assay [3], in [4], in assay [5], in assay [6] and in [7] was above 100 µM in each case. The total growth inhibition concentration (TGI) in assay [10] and in assay [8] was above 100 µM each time.
On to `O=C1N=C2SC(=S)NC(=S)N2NC12c1ccccc1-c1ccccc12`, for which the TGI in [1] was 6.58 µM; in [2], above 10 µM; in assay [3], above 10 µM; in [4], above 10 µM; in assay [9], above 10 µM; in assay [6], above 10 µM. The TGI in assay [7], in assay [10] and in assay [8] was above 10 µM throughout.
